Test results published in ChEMBL document CHEMBL4152183, “Anti-inflammatory effects of flavonoids in neurodegenerative disorders” (Eur J Med Chem, 2018).

Test system: BV-2
Test: Antiinflammatory activity in mouse BV2 cells assessed as inhibition of LPS-induced nitric oxide production pretreated for 1 hr followed by LPS addition and measured after 24 hrs by Griess assay
Type: functional, cell-based

Compound | IC50
O=C(/C=C/c1ccc(O)c(O)c1)c1ccc(O)cc1O [BUTEIN] | 10.9 µM
O=c1c(O)c(-c2ccc(O)c(O)c2)oc2cc(O)ccc12 [FISETIN] | 13.5 µM
